Measured values reported in patent publication US20110257107A1, “Compounds for Delivering Amino Acids or Peptides with Antioxidant Activity into Mitochondria” (University of Rochester, priority 2006, published 2011).
“Also recorded” adds a separate entry of the source. Where two headings read alike, the source gives them in different places.

Tests used:
[1] = tested on: Rat heart mitochondria; conditions: pretreatment 5 mM for 30 minutes, 5 μM rotenone and 100 μM t-BuOOH
Protocol: Mitochondrial membrane potential was measured by safranine. Safranine is a positively charged dye that accumulates in mitochondria on establishment of an electrical potential across the mitochondrial inner membrane. However, its fluorescence is quenched by its accumulation in mitochondria in response to mitochondrial membrane potential. Rat heart mitochondria (0.2 mg protein/200 μl) were transferred to a well containing 0.3 ml of 150 mM KCl, 5 mM HEPES, 15, μM safranine, 5 mM succinate buffer, 5 μM rotenone and 100 μM t-BuOOH. The mitochondria were placed in a multiplate reader.
Fluorescence measurements were made with excitation and emission wavelengths of 485 and 585 nm, respectively.

[2] = tested on: spinal cord neurons; test: H202-induced apoptosis (condensed and fragmented nuclei) in cultured spinal cord neurons; type: cell-based
Protocol: Central to the therapeutic intervention of spinal cord injury is the belief that spinal cord neurons undergo apoptosis and possibly necrosis under oxidative stress. […] In contrast, control neurons show predominantly diffuse nuclear staining. […] This percentage increased to ˜58% for 500 μM H2O2. […] In contrast, immunoreactivity to cytochrome C oxidase (COX), a marker in the inner mitochondrial membrane remained independent of the mitochondrial insults by H202. The differential staining between cytochrome C and COX affords a secondary method to assess whether a given neuron has undergone mitochondrial permeability transition (MPT).

[3] = tested on: brain striatal neurons; test: NMDA-induced depolarization of mitochondrial membrane (TMRE) in striatal neurons; type: cell-based; conditions: pretreatment 50 μm for 30 minutes; NMDA (100 μM)
Protocol: The effects of mitochondrial-targeted antioxidants upon onset of NMDA (100 μM) induced depolarization of mitochondrial membrane of brain striatal neurons are summarized in Table 1.
Tetramethylrhodamine methyl ester (TMRE) was used as an indicator of mitochondrial membrane potential. […] Control neurons were not pretreated with any drug.

[4] = tested on: rat heart; test: Post-ischemic recovery in Langendorff perfused rat heart; set-up: species or system Sprague-Dawley rat; conditions: 50 μM for 10 minutes prior to ischemia
Protocol: Following an equilibration period of approximately 25 minutes, global normothermic ischemia was imposed for 25 minutes, followed by reperfusion for 30 minutes.

[5] = tested on: cultured neonatal rat ventricular myocytes; test: H202-induced depolarization of mitochondrial membrane potential (TMRE) in cardiac myocytes; type: cell-based; conditions: 50 μM H202; for onset of H202-induced depolarization and loss of TMRE fluorescence: pretreatment 50 μM or 100 μM for 30 minutes
Protocol: TMRE is a lipophilic cation that partitions selectively into the negatively charged mitochondria. Neonatal cultured myocytes (6 days in culture) were loaded with 10 nM TMRE for 60 minutes at 37° C. […] As a control, myocytes were not pretreated with any drug. TMRE was excited at 555 nm and fluorescence emission was detected at 590 nm. Fluorescence images were taken every 2 minutes. At the arrow (FIG. 3), myocytes were subjected to oxidative stress by adding 50 μM H202. Plots were normalized to baseline, and are shown as F/F0, where F is the emitted fluorescence at any given time and F0 is the baseline fluorescence before addition of H202. […] The traces were drawn from the mean values of 7-10 experiments.
TMRE was used as an indicator of mitochondrial membrane potential. The myocytes were pretreated with 50 μM Mito GSH for 30 minutes and then washed to remove the antioxidant from the solution in which myocytes were suspended. In control, myocytes were not pretreated with any drug. TMRE was excited at 555 run and fluorescence emission was detected at 590 nm. Fluorescence images were taken every 2 minutes to avoid photobleaching and phototoxicity. Myocytes were subjected to oxidative stress by adding 50 μM H202.

C[N+](C)(C)CCOC(=O)[C@@H](N)CS.[Cl-] [cysteine choline ester, [2-(2-Amino-3-mercapto-L-propionyloxy)ethyl]trimethylammonium chloride]
release of intramitochondrial safranine (depolarization of mitochondrial membrane potential) [1]: diminished the release of intramitochondrial safaranine
release of intramitochondrial safranine (depolarization of mitochondrial membrane potential) ([1]; listed as CYS CE): minimize the depolarization of mitochondrial membrane potential

OO [Compound H202, hydrogen peroxide]
neurons with condensed and fragmented nuclei ([2]; 250 μM H202): ~42%
neurons with condensed and fragmented nuclei ([2]; 500 μM H2O2): ~58%

CC(=O)N[C@@H](CS)C(=O)O [N-acetyl cysteine, N-acetyl-L-cysteine]
Time of Onset of Depolarization [3]: 10.5 ± 1.9 min
onset of ischemic contracture [4]: appeared to delay the onset of ischemic contracture
Overall recovery of left-ventricular developed pressure ([4]; 25 minutes ischemia, 30 minutes reperfusion): 15.7%

CC(=O)N[C@@H](CS)C(=O)OCC[N+](C)(C)C [N-acetyl cysteine choline ester, N-acetyl-L-cysteine choline ester]
release of intramitochondrial safranine (depolarization of mitochondrial membrane potential) ([1]; listed as NAC CE): minimize the depolarization of mitochondrial membrane potential

C[N+](C)(C)CCOC(=O)CNC(=O)[C@H](CS)NC(=O)CC[C@H](N)C(=O)O.[Cl-] [Mito GSH, Glutathione choline ester chloride]
Time of Onset of Depolarization [3]: 17.5 ± 2.1 min
time TMRE fluorescence persisted after H202 treatment ([5]; pretreatment 50 μM for 30 minutes): 50 min
onset of H202-induced depolarization and loss of TMRE fluorescence [5]: delayed onset of H202-induced depolarization and loss of TMRE fluorescence; also recorded: significantly enhanced the time for onset of H202-induced depolarization; also recorded: delay the onset of H202-induced depolarization
time for onset of H202-induced depolarization ([5]; pretreatment 100 μM): 53 ± 3.6 min

C=CC(O)CC(=O)O (centres unmarked) [Compound 3-HP, 3-hydroxy-4-pentenoate]
percentage of cells showing condensed and fragmented nuclei ([2]; 3-HP depletion of mitochondrial glutathione prior to 250 μM H202 treatment): 70%

N[C@@H](CCC(=O)N[C@@H](CS)C(=O)NCC(=O)O)C(=O)O [Glutathione, L-γ-glutamyl-L-cysteinylglycine, reference compound]
time for onset of H202-induced depolarization ([5]; pretreatment 100 μM non-targeted glutathione): did not significantly increase the time for onset of H202-induced depolarization

CC(=O)N[C@@H](CS)C(=O)OCC[N+](C)(C)C [Mito NAC, N,S-acetyl-L-cysteine choline ester]
Time of Onset of Depolarization [3]: 20.5 ± 3.6 min
onset of H202-induced depolarization and loss of TMRE fluorescence [5]: delayed onset of H202-induced depolarization and loss of fluorescence
onset of H202-induced depolarization and loss of TMRE fluorescence ([5]; listed as mito NAC): delay the onset of H202-induced depolarization
